# Experimental data as given in patent US20020137929A1, “1 - (3-heterocyclylphenyl) isothiourea, -isourea, -guanidine and -amidine herbicidal agents” (Intellectual Property Department, BASF Aktiengesellschaft, priority 1998, published 2002).
# Tests used:
# ZEAMX (Corn, Field) = test: Preemergence herbicidal evaluation; format: in vivo, Zea mays; conditions: rated 4-5 weeks after treatment
# How it was run: (§1)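 Seeds were mixed with potting soil and planted on about one inch of soil, then sprayed with test compound in aqueous acetone at about 0.0156 to 0.500 kg per hectare. Plants grew under standard greenhouse care and were visually rated 0-9 against untreated controls 4-5 weeks post-treatment.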
# CYPSE (Flatsedge) [1] = test: Preemergence weed control under flooded paddy conditions; format: in vivo, Cyperus serotinus; conditions: 0.2500 kg/ha, rated 3-4 weeks after treatment
# How it was run: (§2)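 Values are visual 0-9 scores against a control for a preemergence application into paddy flood water at about 0.0313 to 0.500 kg/ha. Greenhouse duration was three to four weeks.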
# CYPIR (Rice Flatsedge) = test: as above; format: in vivo, Cyperus iria; conditions: 0.2500 kg/ha, rated 3-4 weeks after treatment
# How it was run: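 Silt loam, seeds in top 0.5 cm; flood held 1.5-3 cm; test cpd as acetone/water 50/50 into flood water, ~0.0313-0.500 kg/ha a.i.; greenhouse 3-4 wk; visual 0-9 score vs control.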
# CASOB (Sicklepod) [2] = test: Postemergence herbicidal evaluation; format: in vivo, Cassia obtusifolia
# How it was run: (§3)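 Each compound, dispersed in an acetone/water mix (50/50) carrying 0.5% TWEEN 20, is nozzle-sprayed at 40 psi on approximately two-week-old seedlings at about 0.0156–0.500 kg/ha. Plants are assessed 4–5 weeks afterward on a 0–9 scale relative to control; duplicate tests are averaged.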
# ORYSAT (Rice, Tebonnet) = test: Postemergence herbicidal evaluation; format: in vivo, Oryza sativa, (L.) Tebonnet
# How it was run: as §3
# GALAP (Galium) [3] = test: Postemergence herbicidal evaluation; format: in vivo, Galium aparine
# How it was run: as §3
# SETVI (Foxtail, Green) = test: Postemergence herbicidal evaluation; format: in vivo, Setaria viridis
# How it was run: as §3
# [4] = system: GLXMAW (Soybean, Williams); test: Postemergence herbicidal evaluation; format: in vivo, Glycine max, (L.) Merr. cv Williams
# How it was run: as §3
# GALAP (Galium) [5] = test: Preemergence herbicidal evaluation; format: in vivo, Galium aparine; conditions: rated 4-5 weeks after treatment
# How it was run: as §1
# [6] = system: SAGPY (Arrowhead (Pygmaea)); test: Preemergence weed control under flooded paddy conditions; format: in vivo, Sagittaria pygmaea; conditions: 0.2500 kg/ha, rated 3-4 weeks after treatment
# How it was run: as §2
# CYPSE (Flatsedge) [7] = test: Postemergence weed control under flooded paddy conditions; format: in vivo, Cyperus serotinus; conditions: rate 0.2500 kg/ha, postemergence weeds, 3-4 weeks after treatment
# How it was run: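 Containers holding 3–5 cm weeds and rice at 1.5–2.5 leaves are flooded to 1.5–3 cm above soil. Compound in 50/50 v/v aqueous/acetone is then added directly to the water, about 0.0313–0.500 kg/ha. Plants are kept in the greenhouse and rated 0–9 visually at 3–4 weeks.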
# CASOB (Sicklepod) [8] = test: Preemergence herbicidal evaluation; format: in vivo, Cassia obtusifolia; conditions: rated 4-5 weeks after treatment
# How it was run: as §1
# [9] = system: CHEAL (Lambsquarters, Common); test: Postemergence herbicidal evaluation; format: in vivo, Chenopodium album
# How it was run: as §3
# ECHCG (Barnyardgrass) = test: Postemergence herbicidal evaluation; format: in vivo, Echinochloa crus-galli
# How it was run: as §3
# AMBEL (Ragweed, Common) = test: Postemergence herbicidal evaluation; format: in vivo, Ambrosia artemisifolia
# How it was run: as §3
structure (smiles),measurement,setting,value
"Cn1c(C(F)(F)F)cc(=O)n(-c2cc(/N=C3/SCC(=O)N3CC(=O)O)c(Cl)cc2F)c1=O [Compound 52, 2-{{2-Chloro-5-[3,6-dihydro-3-methyl-2,6-dioxo-4-(trifluoromethyl)-1(2H)-pyrimidinyl]-4-fluoro-phenyl}imino}-4-oxo-3-thiazolidineacetic acid]",Preemergence herbicidal rating ZEAMX,"ZEAMX (Corn, Field); rate 0.0313 kg/ha",0.0
same,Preemergence herbicidal rating ZEAMX,"ZEAMX (Corn, Field); rate 0.0625 kg/ha",0.0
same,Preemergence herbicidal rating ZEAMX,"ZEAMX (Corn, Field); rate 0.1250 kg/ha",1.0
same,Preemergence herbicidal rating ZEAMX,"ZEAMX (Corn, Field); rate 0.2500 kg/ha",3.0
same,Herbicidal rating CYPSE,CYPSE (Flatsedge) [1],0.0
same,Herbicidal rating CYPIR,CYPIR (Rice Flatsedge),2.0
same,Postemergence herbicidal rating CASOB,CASOB (Sicklepod) [2]; Rate 0.0158 kg/ha,1.0
same,Postemergence herbicidal rating CASOB,CASOB (Sicklepod) [2]; Rate 0.0315 kg/ha,1.0
same,Postemergence herbicidal rating CASOB,CASOB (Sicklepod) [2]; Rate 0.0630 kg/ha,2.0
same,Postemergence herbicidal rating ORYSAT,"ORYSAT (Rice, Tebonnet); Rate 0.0158 kg/ha",1.0
same,Postemergence herbicidal rating ORYSAT,"ORYSAT (Rice, Tebonnet); Rate 0.0315 kg/ha",1.0
same,Postemergence herbicidal rating ORYSAT,"ORYSAT (Rice, Tebonnet); Rate 0.0630 kg/ha",2.0
same,Postemergence herbicidal rating GALAP,GALAP (Galium) [3]; Rate 0.0158 kg/ha,1.0
same,Postemergence herbicidal rating GALAP,GALAP (Galium) [3]; Rate 0.0315 kg/ha,4.0
same,Postemergence herbicidal rating GALAP,GALAP (Galium) [3]; Rate 0.0630 kg/ha,5.0
same,Postemergence herbicidal rating SETVI,"SETVI (Foxtail, Green); Rate 0.0158 kg/ha",1.0
same,Postemergence herbicidal rating SETVI,"SETVI (Foxtail, Green); Rate 0.0315 kg/ha",3.0
same,Postemergence herbicidal rating SETVI,"SETVI (Foxtail, Green); Rate 0.0630 kg/ha",7.0
same,Postemergence herbicidal rating GLXMAW,[4]; Rate 0.0158 kg/ha,5.0
same,Postemergence herbicidal rating GLXMAW,[4]; Rate 0.0315 kg/ha,6.0
same,Postemergence herbicidal rating GLXMAW,[4]; Rate 0.0630 kg/ha,6.0
same,Preemergence herbicidal rating GALAP,GALAP (Galium) [5]; rate 0.0313 kg/ha,0.0
same,Preemergence herbicidal rating GALAP,GALAP (Galium) [5]; rate 0.0625 kg/ha,0.0
same,Preemergence herbicidal rating GALAP,GALAP (Galium) [5]; rate 0.1250 kg/ha,0.0
same,Preemergence herbicidal rating GALAP,GALAP (Galium) [5]; rate 0.2500 kg/ha,7.0
same,Herbicidal rating SAGPY,[6],0.0
same,Herbicidal rating CYPSE,CYPSE (Flatsedge) [7],0.0
same,Preemergence herbicidal rating CASOB,CASOB (Sicklepod) [8]; rate 0.0313 kg/ha,0.0
same,Preemergence herbicidal rating CASOB,CASOB (Sicklepod) [8]; rate 0.0625 kg/ha,0.0
same,Preemergence herbicidal rating CASOB,CASOB (Sicklepod) [8]; rate 0.1250 kg/ha,1.0
same,Preemergence herbicidal rating CASOB,CASOB (Sicklepod) [8]; rate 0.2500 kg/ha,1.0
same,Postemergence herbicidal rating CHEAL,[9]; Rate 0.0158 kg/ha,4.0
same,Postemergence herbicidal rating CHEAL,[9]; Rate 0.0315 kg/ha,4.0
same,Postemergence herbicidal rating CHEAL,[9]; Rate 0.0630 kg/ha,6.0
same,Postemergence herbicidal rating ECHCG,ECHCG (Barnyardgrass); Rate 0.0158 kg/ha,1.0
same,Postemergence herbicidal rating ECHCG,ECHCG (Barnyardgrass); Rate 0.0315 kg/ha,1.0
same,Postemergence herbicidal rating ECHCG,ECHCG (Barnyardgrass); Rate 0.0630 kg/ha,4.0
same,Postemergence herbicidal rating AMBEL,"AMBEL (Ragweed, Common); Rate 0.0158 kg/ha",1.0
same,Postemergence herbicidal rating AMBEL,"AMBEL (Ragweed, Common); Rate 0.0315 kg/ha",3.0
same,Postemergence herbicidal rating AMBEL,"AMBEL (Ragweed, Common); Rate 0.0630 kg/ha",5.0
